The test system of data set [1] is Staphylococcus aureus. The experiment in a line: silkworm Staphylococcus aureus infection model (therapeutic effect). It is filed as in vivo, silkworm (larva of Bombyx mori). To be noted: purification stages, Table 2. An excerpt: In the present invention too, a first screening to narrow down effective strains from several tens of thousands of extraordinary large numbers of strains may be done by any method as far as the antibacterial activity can be evaluated with the said method; and thus, for example, by referring to MIC, test bodies showing the antibacterial activity to Staphylococcus aureus in culture supernatant of each strain may be picked up. This is because strains not showing the antibacterial activity at all are not in the scope of examination. Any method capable of evaluating the antibacterial activity may be used; but a method with which a strain recognized to show, with referring to MIC, the antibacterial activity to Staphylococcus aureus in culture supernatant of various test strains is picked up is preferable. […]
Strains recognized to show the therapeutic effect in the silkworm Staphylococcus aureus infection model are further subjected to various separation and purification treatments wherein the therapeutic effect is evaluated in each operation by using the silkworm Staphylococcus aureus infection model. […]

Data set [2] concerns Cryptococcus neoformans H99. It is filed as cell-based.
For data set [3], the system named is Candida tropicalis pK233. It counts as cell-based.
The test system of data set [4] is Staphylococcus aureus (MSSA1). An excerpt:
(§1) Antibacterial activity of the antibiotic-substance-containing fraction at each fractionation stage from a culture produced from RH2180-5 and that of the antibiotic substance obtained therefrom by separation and purification thereof can be evaluated by MIC. […] For example, it is done with a broth microdilution method based on CLSI (formerly NCCLS: National Committee for Clinical Laboratory Standards).
Antibacterial spectrum of the RH2180-5 Peak 5 Substance to various bacteria including MRSA and VRE was studied. In addition, influence of chemical resistance was also studied. For study of the latter, Staphylococcus aureus and Enterococcus faecalis were selected, wherein measurement of MIC value of each peak substance was made by a broth microdilution method based on CLSI (formerly NCCLS: National Committee for Clinical Laboratory Standards) as to Staphylococcus aureus not showing resistance to a chemical (hereinafter abbreviated as “MSSA 1”) and two kinds of MRSA showing resistance to many chemicals including methicillin (MRSA 3 and MRSA 4; see Table 3 for resistive chemicals) for Staphylococcus aureus; and as to Enterococcus faecalis not showing resistance to a chemical (hereinafter abbreviated as “EF 1”) and showing resistance to vancomycin (hereinafter abbreviated as “VRE”) for Enterococcus faecalis.
Test microorganisms of Staphylococcus aureus and Enterococcus faecalis, the same as Test Example 1, were selected; and measurement of MIC value of each peak substance was made by a broth microdilution method based on CLSI (formerly NCCLS: National Committee for Clinical Laboratory Standards) as to MSSA 1 and EF 1, and MRSA 3, MRSA 4, and VRE, the same as Test Example 1.
Antibacterial spectrum of the foregoing RH2180-5 Peak 5 Substance to various microorganisms including MRSA and VRE was studied. Each MIC value for the case added with 10% blood serum and for the case not added with the same was measured by a broth microdilution method based on CLSI (formerly NCCLS: National Committee for Clinical Laboratory Standards).

Data set [5] deals with Smith strain of Staphylococcus aureus. Nature of the data set: mouse Staphylococcus aureus infection model (therapeutic effect). It is filed as in vivo, mouse (ICR female). How it is done:
Smith strain of Staphylococcus aureus was suspended in 7% mucin+0.2 mM ferric ammonium citrate, and 6.2×10^6 (20×LD50) thereof was administered into the peritoneal cavity of 5 mice per group (ICR female of four weeks of age). Each drug was injected hypodermically 2 hours after administration of the bacterium by the method shown below.
Similarly, ED50 of vancomycin to the mouse model used this time was studied. […] Here, ED50 values were obtained by the probit method.

Data set [6] deals with Staphylococcus aureus. Nature of the data set: survived cell numbers (CFU) of Staphylococcus aureus after drug addition. To be noted: 25 μg/ml. It counts as cell-based. The method, then: To CA-Mueller Hinton Broth medium were taken 1.8×10^8 Staphylococcus aureus, and then the foregoing RH2180-5 Peak 5 Substance (25 μg/mL), vancomycin (VM, 5 μg/mL), and gentamicin (GM, 2.5 μg/mL) were added thereinto; and then, survived cell numbers after 15 minutes, 30 minutes, 60 minutes, and 120 minutes were obtained as CFU (colony forming unit/mL).

Data set [7] in a line: acute toxicity test to a mouse. It is filed as in vivo. The method, then:
Further, the RH2180-5 Peak 5 Substance was injected hypodermically to the mouse to study acute toxicity of the RH2180-5 Peak 5 Substance to the mouse by observation one day after the administration.

The subject of data set [8] is Salmonella enterica.
Description: as §1
Antibacterial spectrum of the RH2180-5 Peak 5 Substance to various bacteria including MRSA and VRE was studied. In addition, influence of chemical resistance was also studied. For study of the latter, Staphylococcus aureus and Enterococcus faecalis were selected, wherein measurement of MIC value of each peak substance was made by a broth microdilution method based on CLSI (formerly NCCLS: National Committee for Clinical Laboratory Standards) as to Staphylococcus aureus not showing resistance to a chemical (hereinafter abbreviated as “MSSA 1”) and two kinds of MRSA showing resistance to many chemicals including methicillin (MRSA 3 and MRSA 4; see Table 3 for resistive chemicals) for Staphylococcus aureus; and as to Enterococcus faecalis not showing resistance to a chemical (hereinafter abbreviated as “EF 1”) and showing resistance to vancomycin (hereinafter abbreviated as “VRE”) for Enterococcus faecalis. […]

The subject of data set [9] is Streptococcus pyogenes. It counts as cell-based.
The test system of data set [10] is Staphylococcus aureus. The experiment in a line: bacteriolytic activity, absorbance at 600 nm (OD600). It counts as cell-based. To be noted: concentration five times that of Test Example 1, 37° C., compared with vancomycin and daptomycin, FIG. 11. How it is done: Staphylococcus aureus was diluted in CA-Mueller Hinton Broth medium; and then, the RH2180-5 Peak 5 Substance, vancomycin, and daptomycin were added thereinto with the concentrations thereof being five times as much as those of Test Example 1; and then, the microorganism was cultured at 37° C. By using an absorption spectrometer (manufactured by Shimadzu Corp.), absorbance at 600 nm (OD600) after their addition was followed with passage of time.

Data set [11] has as its system Listeria monocytogenes. It counts as cell-based.

≈ marks a conversion by molar mass, not a printed value. Entries after “also recorded” stand apart in the source; their conditions may differ. Where two headings read alike, the source gives them in different places. Positions of bridges follow the written chain, without caps; N, C: chain ends. Non-standard residues stand in square brackets, D forms with d. Residues, ends and D or L forms follow the SMILES beside them. *: point of attachment. Hexanoyl(3R-OH,5-Me) = CC(C)C[C@@H](O)CC(=O)*; dNMeF = CN[C@H](Cc1ccccc1)C(=O)O

Usually MIC stands for the lowest concentration found to suppress growth. A low value points to inhibition by little substance. Consider `CC[C@H](C)[C@@H]1NC(=O)[C@@H](Cc2c[nH]c3ccccc23)NC(=O)[C@@H](CCC(N)=O)NC(=O)[C@H](CCC(=O)O)NC(=O)[C@@H](CCCNC(=N)N)NC(=O)[C@H](CC(C)C)NC(=O)[C@@H](Cc2ccccc2)N(C)C(=O)CNC(=O)[C@H](CO)NC(=O)[C@@H](CCCNC(=N)N)NC(=O)[C@@H](NC(=O)C[C@H](O)CC(C)C)[C@@H](C)OC(=O)[C@H]([C@@H](C)O)NC1=O` [Peak P5] ({Hexanoyl(3R-OH,5-Me)}-T[dR]SG[dNMeF]L[dR]E[dQ][dW]IT; ester 1-C), for which the ED50 was determined as 0.3 μg/g-larva in data set [1] and 0.6 mg/kg in data set [5] (mouse, S. aureus Smith 6.2 × 10^6 (20 × LD50) intraperitoneal, drug injected hypodermically 2 hours later, survival one day after, probit method). Besides, the minimum inhibitory concentration (MIC) is above 100 µg/mL in [2]; above 100 µg/mL in data set [3]; 5 µg/mL (≈ 3.09 µM) in data set [4] (Table 3, Staphylococcus aureus (MSSA1), resistance-showing chemicals: Non); 6.3 µg/mL (≈ 3.89 µM) in data set [4] (Table 4, MSSA1); 1.5 µg/mL (≈ 0.927 µM) in [4] (Table 6, with 10% serum, Methicillin susceptible S. aureus MSSA1 (clinical isolate)); 3.1 µg/mL (≈ 1.92 µM) in data set [4] (Table 6, without serum, Methicillin susceptible S. aureus MSSA1 (clinical isolate)). Further, the minimal inhibitory concentration (MIC) in [8] (Table 3, Salmonella enteria) is above 100 µg/mL; in data set [8] (Table 6, without serum, Salmonella enterica), above 100 µg/mL; in data set [9], 50 µg/mL (≈ 30.9 µM); in data set [11], 6.3 µg/mL (≈ 3.89 µM). Also, in data set [5] (25 mg/kg hypodermically, no survival with PBS administration, 5 mice per group), the “survival in the mouse Staphylococcus aureus infection model” value is “survival of totality of mice”. For the same molecule, the “ED50 value relative to vancomycin” value in data set [5] (mouse Staphylococcus aureus infection model) is listed as “about one third”. For the same molecule, the “CFU/ml of S. aureus” value in [6] (15 minutes, start 1.8 × 10^8) was <1 × 10^4 CFU/ml; in data set [6] (30 minutes), <1 × 10^4 CFU/ml; in data set [6] (60 minutes), <1 × 10^4 CFU/ml; in data set [6] (120 minutes), <1 × 10^4 CFU/ml. Moreover, the “acute toxicity to the mouse” value in [7] (injected hypodermically, up to 50 mg/kg, observation one day after the administration, listed as RH2180-5 Peak 5 Substance) is given as “mouse was not killed; also recorded: no toxicity observed”. The “highest dose without toxicity (50 mg/kg) relative to ED50” value in [7] (mouse, hypodermic) came to 80 folds. For the same molecule, the Solubility to solvents entry (chloroform) is recorded as “Insoluble”; the Solubility to solvents entry (water, ethanol, methanol, and acetonitrile) was “Soluble”. Also, the “bacteriolytic activity (decrease of absorbance OD600)” value in [10] is “shows the bacteriolytic activity”.

The values are drawn from patent US8754040B2, “Cyclic peptide compound, method for producing same, anti-infective agent, antibiotic-containing fraction, antibiotic, method for producing antibiotic, antibiotic-producing microorganism, and antibiotic produced by same” (priority 2010, dated 2014).
